Laboratory results reported in ChEMBL document CHEMBL4651402, “Screening of ~5500 FDA-approved drugs and clinical candidates for anti-SARS-CoV-2 activity” (2021).
Counter-ions that a name gives are not always drawn.

System: SARS-CoV-2
Experiment: microbe, parasite or virus in culture
Settings: Severe acute respiratory syndrome coronavirus 2, Vero C1008, 48 h

SMILES | IC50 | IC50 (read-out: pIC50 (converted))
COc1cccc(-c2cc(=O)c3ccccc3o2)c1N | > 20 µM | > 20 µM
OC(CCN1CCCCC1)(c1ccccc1)c1ccccc1 [PRIDINOL] | > 20 µM | > 20 µM
C[N+]1([O-])[C@@H]2C[C@@H](OC(=O)[C@H](CO)c3ccccc3)C[C@H]1[C@@H]1O[C@@H]12 (stereo partly specified) | > 20 µM | > 20 µM
Cc1cn([C@H]2C[C@H](F)[C@@H](CO)O2)c(=O)[nH]c1=O [ALOVUDINE] | > 100 µM | > 100 µM
CC(C)Oc1ccc2c(=O)c(-c3ccccc3)coc2c1 [IPRIFLAVONE] | > 20 µM | > 20 µM
CCN(CC)CCNC(=O)c1ccc(N)cc1 [PROCAINAMIDE] | > 20 µM | > 20 µM
CC(=O)Oc1cc(OC(C)CCCc2ccccc2)cc2c1[C@@H]1C[C@H](O)CC[C@H]1[C@H](C)N2 (stereo partly specified) [NANTRADOL HYDROCHLORIDE] | > 20 µM | > 20 µM
Cc1nc2ccccn2c(=O)c1CCN1CCC(Nc2nc3cccnc3n2Cc2ccco2)CC1 [BARMASTINE] | > 20 µM | > 20 µM
N=C(N)NN=C1C=CC(=NNC(N)=S)C=C1 [AMBAZONE] | > 20 µM | > 20 µM
CN(C)CCC(c1ccccc1)c1ccccn1 (stereo unspecified) [PHENIRAMINE] | > 20 µM | > 20 µM
CC(C)N(CCC(C(N)=O)(c1ccccc1)c1ccccn1)C(C)C (stereo unspecified) [DISOPYRAMIDE] | > 20 µM | > 20 µM
COc1ccc(Cl)cc1[C@]1(F)C(=O)Nc2cc(C(F)(F)F)ccc21 [FLINDOKALNER] | > 20 µM | > 20 µM
CCn1cc(C(=O)O)c(=O)c2ccc(Cc3ccccc3)nc21 [AMFONELIC ACID] | > 20 µM | > 20 µM
C#C[C@]1(O)CC[C@H]2[C@@H]3CCc4cc(O)ccc4[C@H]3CC[C@@]21C [ETHINYL ESTRADIOL] | > 20 µM | > 20 µM
CC#CCn1c(N2CCC[C@@H](N)C2)nc2c1c(=O)n(Cc1nc(C)c3ccccc3n1)c(=O)n2C [LINAGLIPTIN] | > 20 µM | > 20 µM
CCC1(c2ccccc2)C(=O)NC(=O)N(C)C1=O (stereo unspecified) [MEPHOBARBITAL] | > 20 µM | > 20 µM
CN(CCOc1ccc(CC2SC(=O)NC2=O)cc1)c1ccccn1 (stereo unspecified) [ROSIGLITAZONE] | > 20 µM | > 20 µM
CCCSc1ccc2[nH]c(NC(=O)OC)nc2c1 [ALBENDAZOLE] | > 20 µM | > 20 µM
COc1cc2c(Oc3ccc4[nH]c(C)cc4c3F)ncnc2cc1OCCCN1CCCC1 [CEDIRANIB] | > 20 µM | > 20 µM
CC[N+](C)(CC)CCC[n+]1c(-c2ccccc2)c2cc(N)ccc2c2ccc(N)cc21 | > 20 µM | > 20 µM

SMILES | IC50 | IC50 (read-out: pIC50 (converted))
CC1Cc2ccccc2N1NC(=O)c1ccc(Cl)c(S(N)(=O)=O)c1 (stereo unspecified) [INDAPAMIDE] | > 20 µM | > 20 µM
CN1[C@@H](CC(=O)c2ccccc2)CCC[C@H]1C[C@H](O)c1ccccc1 [LOBELINE] | > 20 µM | > 20 µM
CC1C(=O)OC2C(O)C34C5CC(C(C)(C)C)C36C(OC(=O)C6O)OC4(C(=O)O5)C12O (stereo unspecified) | > 20 µM | > 20 µM
CC(C)C(C)/C=C/C(C)C1CCC2C3=CC=C4CC(O)CCC4(C)[C@H]3CCC21C (stereo partly specified) | > 20 µM | > 20 µM
CCCN(CCC)C(=O)C(CCC(=O)O)NC(=O)c1ccccc1 (stereo unspecified) [PROGLUMIDE] | > 20 µM | > 20 µM
CC[C@H]1OC(=O)[C@H](C)[C@@H](O[C@H]2C[C@@](C)(OC)[C@@H](O)[C@H](C)O2)[C@H](C)[C@@H](O[C@@H]2O[C@H](C)C[C@H](N(C)C)[C@H]2O)[C@](C)(O)C[C@@H](C)C(=O)[C@H](C)[C@@H](O)[C@]1(C)O [ERYTHROMYCIN] | > 20 µM | > 20 µM
O=C1O[C@@H]([C@@H](O)CO)C(O)=C1O | > 20 µM | > 20 µM
O=C(NC1CCCCC1)NS(=O)(=O)c1ccc2c(c1)CCC2 [GLYHEXAMIDE] | > 20 µM | > 20 µM
Cc1ccc(Cn2c(NC3CCNCC3)nc3cccnc32)o1 [NOBERASTINE] | > 20 µM | > 20 µM
O=c1[nH]cnc2c([C@@H]3N[C@H](CO)[C@@H](O)[C@H]3O)c[nH]c12 [FORODESINE] | > 20 µM | > 20 µM
CCOc1ccc(CC2=NCCc3cc(OC(C)C)c(OC(C)C)cc32)cc1OCC [DIPROTEVERINE] | > 20 µM | > 20 µM
CC(=O)OCCN1CCN(CCCN2c3ccccc3Sc3ccc(Cl)cc32)CC1 [THIOPROPAZATE] | > 20 µM | > 20 µM
C=C(C)[C@@H]1CC[C@]2(C(=O)O)CC[C@]3(C)[C@H](CC[C@@H]4[C@@]5(C)CC[C@H](OC(=O)CC(C)(C)C(=O)O)C(C)(C)[C@@H]5CC[C@]43C)[C@@H]12 [BEVIRIMAT] | > 20 µM | > 20 µM
CC(C)c1nc(-c2ccccc2)cc(-c2ccc(F)cc2)c1/C=C/[C@@H]1C[C@@H](O)CC(=O)O1 [GLENVASTATIN] | > 20 µM | > 20 µM
CCCN(CCC)CCc1cccc2c1CC(=O)N2 [ROPINIROLE] | > 20 µM | > 20 µM
O=C(O)c1cc(/N=N/c2ccc(O)c(C(=O)O)c2)ccc1O [OLSALAZINE] | > 20 µM | > 20 µM
NS(=O)(=O)c1cc2c(cc1C(F)(F)F)NCNS2(=O)=O [HYDROFLUMETHIAZIDE] | > 20 µM | > 20 µM
N[C@@H](C(=O)O)[C@@H](O)[C@H](O)[C@H](O)CO [GLUCOSAMINIC ACID] | > 20 µM | > 20 µM
CCc1ccc(C(=O)C(C)CN2CCCCC2)cc1 (stereo unspecified) [EPERISONE] | > 20 µM | > 20 µM
CS(=O)(=O)c1ccc(-c2cnc(N)c(-c3ccc(C(F)(F)F)nc3)c2)cc1 [MMV-048] | > 20 µM | > 20 µM

SMILES | IC50 | IC50 (read-out: pIC50 (converted))
Nc1nnc(-c2cccc(Cl)c2Cl)c(N)n1 [LAMOTRIGINE] | > 20 µM | > 20 µM
CN(C)CCOc1ccc2c(=O)c3ccc(OCCN(C)C)cc3oc2c1 | > 20 µM | > 20 µM
CC(C)Cc1sc(-c2nccs2)nc1C(=O)NCc1ccc(F)cc1 | > 20 µM | > 20 µM
C=C1[C@@H](O)C2/C=C\C[C@H](C)C(=O)[C@](C)(O)/C=C/[C@@H](OC(C)=O)[C@]23C(=O)N[C@H](Cc2ccccc2)[C@@H]3[C@@H]1C (stereo partly specified) | > 20 µM | > 20 µM
CC[C@H]1C2C[C@H]3[C@@H]4N(C)c5ccccc5[C@]45C[C@H](C2[C@H]5O)N3[C@@H]1O (stereo partly specified) | > 20 µM | > 20 µM
O=C1OC(CN2CCOCC2)CN1/N=C/c1ccc([N+](=O)[O-])o1 (stereo unspecified) [FURALTADONE] | > 20 µM | > 20 µM
C=C(C)C1CC=C(CO)CC1 (stereo unspecified) | > 20 µM | > 20 µM
CC(C)(Oc1ccc(C2CCCc3ccccc32)cc1)C(=O)O (stereo unspecified) [NAFENOPIN] | > 20 µM | > 20 µM
CC(=O)O[C@@]12CO[C@@H]1C[C@H](O)[C@@]1(C)C(=O)[C@H](O)C3=C(C)[C@@H](OC(=O)[C@H](O)[C@@H](NC(=O)OC(C)(C)C)c4ccccc4)C[C@](O)([C@@H](OC(=O)c4ccccc4)[C@H]21)C3(C)C | > 20 µM | > 20 µM
Cn1nnc(-c2ccc(-c3ccc(N4C[C@H](COP(=O)(O)O)OC4=O)cc3F)cn2)n1 [TEDIZOLID PHOSPHATE] | > 20 µM | > 20 µM
COCCNCc1ccc(-c2cc3nccc(Oc4ccc(NC(=S)NC(=O)Cc5ccc(F)cc5)cc4F)c3s2)nc1 [GLESATINIB] | > 20 µM | > 20 µM
CCC(=O)[C@@]1(C)[C@H](C)C[C@H]2[C@@H]3CCC4=CC(=O)C=C[C@]4(C)[C@H]3[C@@H](O)C[C@@]21C [RIMEXOLONE] | > 20 µM | > 20 µM
CCCCC(=O)N(Cc1ccc(-c2ccccc2-c2nnn[nH]2)cc1)[C@H](C(=O)O)C(C)C | > 20 µM | > 20 µM
Cn1cnc2[nH]c(=O)[nH]c(=O)c21 [7-METHYLXANTHINE] | > 20 µM | > 20 µM
CC1CC2(C)C3CCC4(C)C(O)CCC4C3CC[C@H]2CC1=O (stereo partly specified) | > 20 µM | > 20 µM
NC(=O)c1ccc[n+]([C@@H]2O[C@H](COP(=O)([O-])OP(=O)(O)OC[C@H]3O[C@@H](n4cnc5c(N)ncnc54)[C@H](O)[C@@H]3O)[C@@H](O)[C@H]2O)c1 [NADIDE] | > 20 µM | > 20 µM
COc1ccc(C(=O)NCc2cccnc2)cc1C(=O)NCc1cccnc1 [PICOTAMIDE] | > 20 µM | > 20 µM
OC(CCN1CCCCC1)(c1ccccc1)C1CCCC1 (stereo unspecified) [CYCRIMINE] | > 20 µM | > 20 µM
